From US10106534B2 (CELGENE QUANTICEL RESEARCH, INC., priority 2014, dated 2018) come the findings set out here.

The subject of test [1] is KYSE-150 esophageal carcinoma cell line. The experiment in a line: In vitro cell-based assay: cellular proliferation via BrdU incorporation (ELISA). Details: species or system human. The following applies: Homo sapiens, KYSE-150, 168 hours compound incubation. In a few lines:
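KYSE-150 cells (JMJD2C-amplified; SMAD4 and TP53 mutant), 2,000/well, were treated after overnight attachment with an 11-point series (100 μM to 2 nM) for 168 h. Proliferation was read by BrdU ELISA (2 h labelling, anti-BrdU-peroxidase, TMB, 450 nm) and IC50 fitted.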
On the technique in general: Dividing cells build labelled thymidine or BrdU into new DNA.

A further test concerns the target JMJD3 (Homo sapiens, UniProt O15054). The experiment in a line: In vitro enzyme inhibition assay for JMJD3 activity (TR-FRET). It is filed as biochemical. The procedure:
This assay determines the ability of a test compound to inhibit JMJD3 demethylase activity.
The enzymatic assay of JMJD3 activity is based upon Time Resolved-Fluorescence Resonance Energy Transfer (TR-FRET) detection. […] Reaction product was determined quantitatively by TR-FRET after the addition of detection reagent Phycolink Streptavidin-allophycocyanin (Prozyme) and Europium-anti-di-methylated histone H3 lysine 27 (H3K27me2) antibody (PerkinElmer) in the presence of 5 mM EDTA in LANCE detection buffer (PerkinElmer) at a final concentration of 50 nM and 1 nM, respectively.
The reaction mixture was incubated at room temperature for 30 minutes, and terminated by the addition of 6 μL of 5 mM EDTA in LANCE detection buffer containing 100 nM Phycolink Streptavidin-allophycocyanin and 2 nM Europium-anti-H3K27me2 antibody.
A general note: TR-FRET usually uses a lanthanide donor and a delayed reading to cut background.

A further test addresses JMJD2C (Homo sapiens (Human), UniProt Q9H3R0). In words: In vitro enzyme inhibition assay for JMJD2C activity (TR-FRET). It counts as biochemical. Summed up:
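Baculovirus JMJD2C (AA 2-372), 0.3 nM, with 300 nM biotin-H3K9me3 peptide and 2 μM α-ketoglutarate in HEPES pH 7.3 containing Fe(II) and ascorbate, 30 min at room temperature, 11-point dilutions. H3K9me2 product by TR-FRET (Eu-antibody/streptavidin-APC, 665/615 ratio); IC50 fitted.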

Sequence of JMJD2C (Q9H3R0 2-372): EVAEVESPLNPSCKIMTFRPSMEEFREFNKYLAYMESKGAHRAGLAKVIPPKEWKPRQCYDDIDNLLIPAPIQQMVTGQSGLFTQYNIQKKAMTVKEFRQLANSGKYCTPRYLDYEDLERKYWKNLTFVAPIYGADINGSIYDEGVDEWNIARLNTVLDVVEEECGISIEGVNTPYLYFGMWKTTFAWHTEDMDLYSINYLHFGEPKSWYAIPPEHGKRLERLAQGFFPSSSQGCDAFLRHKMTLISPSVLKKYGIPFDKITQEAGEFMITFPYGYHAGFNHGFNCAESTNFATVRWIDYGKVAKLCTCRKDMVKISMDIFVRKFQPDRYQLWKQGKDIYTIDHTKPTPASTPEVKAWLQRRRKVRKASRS

For the molecule `Cc1sccc1-c1ccc2c(c1)OCC[C@H]2CNc1cnccc1C(=O)O` [Example 37, 3-({[(4R)-7-(2-methylthiophen-3-yl)-3,4-dihydro-2H-1-benzopyran-4-yl]methyl}amino)pyridine-4-carboxylic acid], the IC50 is 0.1 to 1 µM in test [1], 1 to 10 µM against JMJD3 and 1 to 10 µM on JMJD2C.
Turning to `O=C(O)c1ccncc1NC[C@@H]1CCOc2cc(-c3ccccc3Cl)ccc21` [Example 40, 3-({[(4R)-7-(2-chlorophenyl)-3,4-dihydro-2H-1-benzopyran-4-yl]methyl}amino)pyridine-4-carboxylic acid], the IC50 in test [1] was no more than 0.1 µM; against JMJD3, 1 to 10 µM; at JMJD2C it was 0.1 to 1 µM.
The like results for `O=C(O)c1ccncc1NC[C@@H]1CCOc2cc(Sc3ccc(F)cc3)ccc21` [Example 55, 3-({[(4R)-7-[(4-fluorophenyl)sulfanyl]-3,4-dihydro-2H-1-benzopyran-4-yl]methyl}amino)pyridine-4-carboxylic acid] were, in that order, 0.1 to 1 µM, 1 to 10 µM and 0.1 to 1 µM.
Consider `Cc1ccc(Oc2ccc3c(c2)CCC[C@H]3CNc2cnccc2C(=O)O)c(F)c1` [Example 66, 3-({[(1R)-6-(2-fluoro-4-methylphenoxy)-1,2,3,4-tetrahydronaphthalen-1-yl]methyl}amino)pyridine-4-carboxylic acid], for which the IC50 is no more than 0.1 µM in test [1], 1 to 10 µM against JMJD3 and 0.1 to 1 µM against JMJD2C.
As to `COc1ccc2c(c1C)CCC[C@H]2CNc1cnccc1C(=O)O` [Example 99, 3-({[(1R)-6-methoxy-5-methyl-1,2,3,4-tetrahydronaphthalen-1-yl]methyl}amino)pyridine-4-carboxylic acid], the IC50 was 1 to 10 µM in test [1], 0.1 to 1 µM on JMJD3 and 0.1 to 1 µM against JMJD2C.
As to `Cc1ccc(N(C)c2ccc3c(c2)CCC[C@H]3CNc2cnccc2C(=O)O)nc1` [Example 122, 3-({[(1R)-6-[methyl(5-methylpyridin-2-yl)amino]-1,2,3,4-tetrahydronaphthalen-1-yl]methyl}amino)pyridine-4-carboxylic acid], the IC50 in test [1] is no more than 0.1 µM; on JMJD3 it was 1 to 10 µM; at JMJD2C, 0.1 to 1 µM.
In the same order, the values of `Cc1cccc(N(C)c2ccc3c(c2)CCC[C@H]3CNc2cnccc2C(=O)O)n1` [Example 123, 3-({[(1R)-6-[methyl(6-methylpyridin-2-yl)amino]-1,2,3,4-tetrahydronaphthalen-1-yl]methyl}amino)pyridine-4-carboxylic acid] are no more than 0.1 µM, 1 to 10 µM and 0.1 to 1 µM.
`C#Cc1ccc(N(C)c2ccc3c(c2)OCC[C@H]3CNc2cnccc2C(=O)O)cc1` [Example 126, 3-({[(4R)-7-[(4-ethynylphenyl)(methyl)amino]-3,4-dihydro-2H-1-benzopyran-4-yl]methyl}amino)pyridine-4-carboxylic acid]: the figures for the IC50 (in test [1]; on JMJD3; against JMJD2C) were 0.1 to 1 µM, 1 to 10 µM and 0.1 to 1 µM, respectively.
In the case of `CN(c1ccc(C2CC2)cc1)c1ccc2c(c1)OCC[C@H]2CNc1cnccc1C(=O)O` [Example 134, 3-({[(4R)-7-[(4-cyclopropylphenyl)(methyl)amino]-3,4-dihydro-2H-1-benzopyran-4-yl]methyl}amino)pyridine-4-carboxylic acid], the values for the IC50 (in test [1]; at JMJD3; on JMJD2C) were no more than 0.1 µM, 1 to 10 µM and 0.1 to 1 µM, respectively.
In the same order, the values of `Cc1ccc(N(C)c2ccc3c(c2)CCC[C@H]3CNc2cnccc2C(=O)O)cc1` [Example 140, 3-({[(1R)-6-[methyl(4-methylphenyl)amino]-1,2,3,4-tetrahydronaphthalen-1-yl]methyl}amino)pyridine-4-carboxylic acid] are no more than 0.1 µM, 1 to 10 µM and 0.1 to 1 µM.
The like results for `Cc1ccc(N(C)c2ccc3c(c2)OCC[C@H]3CNc2cnccc2C(=O)O)nc1` [Example 145, 3-({[(4R)-7-[methyl(5-methylpyridin-2-yl)amino]-3,4-dihydro-2H-1-benzopyran-4-yl]methyl}amino)pyridine-4-carboxylic acid] were, in that order, no more than 0.1 µM, 1 to 10 µM and no more than 0.1 µM.
The like results for `CN(c1ccc2c(c1)OCC[C@H]2CNc1cnccc1C(=O)O)c1ccc(C2CC2)cn1` [Example 153, 3-({[(4R)-7-[(5-cyclopropylpyridin-2-yl)(methyl)amino]-3,4-dihydro-2H-1-benzopyran-4-yl]methyl}amino)pyridine-4-carboxylic acid] were, in that order, no more than 0.1 µM, 1 to 10 µM and 0.1 to 1 µM.
`CCc1ccc(N(C)c2ccc3c(c2)OCC[C@H]3CNc2cnccc2C(=O)O)cc1` [Example 154, 3-({[(4R)-7-[(4-ethylphenyl)(methyl)amino]-3,4-dihydro-2H-1-benzopyran-4-yl]methyl}amino)pyridine-4-carboxylic acid]: the figures for the IC50 (in test [1]; on JMJD3; against JMJD2C) were no more than 0.1 µM, 1 to 10 µM and 0.1 to 1 µM, respectively.
The like results for `Cc1cnc(N(C)c2ccc3c(c2)CCC[C@H]3CNc2cnccc2C(=O)O)nc1` [Example 156, 3-({[(1R)-6-[methyl(5-methylpyrimidin-2-yl)amino]-1,2,3,4-tetrahydronaphthalen-1-yl]methyl}amino)pyridine-4-carboxylic acid] were, in that order, 0.1 to 1 µM, 1 to 10 µM and 0.1 to 1 µM.
In the same order, the values of `CCc1ccc(N(C)c2ccc3c(c2)OCC[C@H]3CNc2cnccc2C(=O)O)nc1` [Example 157, 3-({[(4R)-7-[(5-ethylpyridin-2-yl)(methyl)amino]-3,4-dihydro-2H-1-benzopyran-4-yl]methyl}amino)pyridine-4-carboxylic acid] are no more than 0.1 µM, 1 to 10 µM and 0.1 to 1 µM.
Regarding `CN(c1ccc2c(c1)CCC[C@H]2CNc1cnccc1C(=O)O)c1cnn(C)c1` [Example 159, 3-({[(1R)-6-[methyl(1-methyl-1H-pyrazol-4-yl)amino]-1,2,3,4-tetrahydronaphthalen-1-yl]methyl}amino)pyridine-4-carboxylic acid], the concentration for half-maximal inhibition (IC50) in test [1] lay in the range of 1 to 10 µM; against JMJD3, 1 to 10 µM; against JMJD2C, 0.1 to 1 µM.
As for `CN(C)c1ccc(N(C)c2ccc3c(c2)CCC[C@H]3CNc2cnccc2C(=O)O)cc1` [Example 160, 3-({[(1R)-6-{[4-(dimethylamino)phenyl](methyl)amino}-1,2,3,4-tetrahydronaphthalen-1-yl]methyl}amino)pyridine-4-carboxylic acid], the results for the IC50 (in test [1]; against JMJD3; at JMJD2C) were no more than 0.1 µM, 1 to 10 µM and 0.1 to 1 µM, respectively.
Turning to `COCc1ccc(N(C)c2ccc3c(c2)CCC[C@H]3CNc2cnccc2C(=O)O)cc1` [Example 164, 3-({[(1R)-6-{[4-(methoxymethyl)phenyl](methyl)amino}-1,2,3,4-tetrahydronaphthalen-1-yl]methyl}amino)pyridine-4-carboxylic acid], the IC50 is no more than 0.1 µM in test [1], 1 to 10 µM against JMJD3 and 0.1 to 1 µM against JMJD2C.
In the same order, the values of `CN(c1ccc(O)cc1)c1ccc2c(c1)CCC[C@H]2CNc1cnccc1C(=O)O` [Example 165, 3-({[(1R)-6-[(4-hydroxyphenyl)(methyl)amino]-1,2,3,4-tetrahydronaphthalen-1-yl]methyl}amino)pyridine-4-carboxylic acid] are 1 to 10 µM, 1 to 10 µM and 0.1 to 1 µM.
In the same order, the values of `Cc1noc(C)c1N(C)c1ccc2c(c1)CCC[C@H]2CNc1cnccc1C(=O)O` [Example 166, 3-({[(1R)-6-[(dimethyl-1,2-oxazol-4-yl)(methyl)amino]-1,2,3,4-tetrahydronaphthalen-1-yl]methyl}amino)pyridine-4-carboxylic acid] are greater than 10 µM, 1 to 10 µM and 0.1 to 1 µM.
In the same order, the values of `CN(c1ccc(N2CCOCC2)cc1)c1ccc2c(c1)CCC[C@H]2CNc1cnccc1C(=O)O` [Example 170, 3-({[(1R)-6-{methyl[4-(morpholin-4-yl)phenyl]amino}-1,2,3,4-tetrahydronaphthalen-1-yl]methyl}amino)pyridine-4-carboxylic acid] are no more than 0.1 µM, 1 to 10 µM and 0.1 to 1 µM.
Regarding `CN(c1ccc(N2CCC2)cc1)c1ccc2c(c1)OCC[C@H]2CNc1cnccc1C(=O)O` [Example 183, 3-({[(4R)-7-{[4-(azetidin-1-yl)phenyl](methyl)amino}-3,4-dihydro-2H-1-benzopyran-4-yl]methyl}amino)pyridine-4-carboxylic acid], the values for the 50% inhibitory concentration (IC50) (in test [1]; against JMJD3; on JMJD2C) were no more than 0.1 µM, 1 to 10 µM and 0.1 to 1 µM, respectively.
Consider `CN(c1ccc(OC(F)F)cc1)c1ccc2c(c1)CCC[C@H]2CNc1cnccc1C(=O)O` [Example 184, 3-({[(1R)-6-{[4-(difluoromethoxy)phenyl](methyl)amino}-1,2,3,4-tetrahydronaphthalen-1-yl]methyl}amino)pyridine-4-carboxylic acid], for which the IC50 in test [1] is no more than 0.1 µM; on JMJD3 it was 1 to 10 µM; on JMJD2C, 0.1 to 1 µM.

What is called IC50 is the concentration at which inhibition is half-maximal. A lower IC50 goes with greater potency in that assay.
